Experimental data reported in patent publication EP0820452B1, “CARBONYL-PIPERAZINYL AND PIPERIDINIL COMPOUNDS WHICH INHIBIT FARNESYL PROTEIN TRANSFERASE” (SCHERING CORPORATION, priority 1995, dated 1996).
pIC50: −log10 of the molar value.

Molecular target: FTase (Homo sapiens, UniProt P49354+P49356)
Test: in vitro assay measuring the inhibition of FTase (FPT IC50), methods of WO95/10516
Assay type: biochemical
Settings: concentration of compound which inhibits 50% of FPT transferase
Source text: Measurements of pharmacological activity of the present compounds can be made based upon a […] (i.e. FPT lC50), cell mat assay (GGPT lC50) or in vitro tumor activity (Cos Cell lC50) as described by the methods in W095/10516.
FPT lC50 values refer to concentration, in micromoles (µM), of compound which inhibits 50% of FPT transferase

Chain of FTase (P49356 whole entry, one chain of several): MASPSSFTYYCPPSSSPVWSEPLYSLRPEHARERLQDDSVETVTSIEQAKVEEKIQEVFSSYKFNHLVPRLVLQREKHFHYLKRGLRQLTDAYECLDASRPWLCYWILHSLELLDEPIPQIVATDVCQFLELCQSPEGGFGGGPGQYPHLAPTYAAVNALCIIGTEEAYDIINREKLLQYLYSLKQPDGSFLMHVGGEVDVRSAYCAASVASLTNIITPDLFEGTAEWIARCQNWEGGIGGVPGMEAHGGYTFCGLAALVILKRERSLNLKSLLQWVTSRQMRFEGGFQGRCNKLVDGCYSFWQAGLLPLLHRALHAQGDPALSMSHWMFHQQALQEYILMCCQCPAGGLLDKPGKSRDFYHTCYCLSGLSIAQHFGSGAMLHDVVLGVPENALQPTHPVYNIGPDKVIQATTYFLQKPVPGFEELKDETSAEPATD

- pIC50: < 4.30
SMILES: CC(C)NC(=O)CC1CN(C(=O)c2ccc3ccccc3c2)CCN1C(=O)Cc1ccncc1 (stereo not shown)
